Source: ChEMBL document CHEMBL4610033, “(1-4)-Thiodisaccharides as anticancer agents. Part 5. Evaluation of anticancer activity and investigation of mechanism of action” (Bioorg Med Chem Lett, 2020)
One block for each molecule: values may come before it. Calls of active or inactive are those of the source. The rule behind the calls is not given here.

Tests used:
[1] = Induction of apoptosis in human H7PX cells assessed as reduction in bcl2 gene expression at IC20 after 4 hrs by RT-PCR analysis relative to untreated control; type: functional
[2] = Anticlonogenic activity against human H6PX cells assessed as ratio of the number of colonies to the number of cells seeded at IC20 incubated for 14 days followed by replating and measured after 2 weeks by crystal violet staining based microscopic analysis (reference value: 100%); type: functional
U-87 MG [3] = assay: Induction of apoptosis in human U87 cells assessed as reduction in bcl2 gene expression at IC20 after 4 hrs by RT-PCR analysis relative to untreated control; type: functional, U-87MG ATCC
U-87 MG [4] = assay: Antiproliferative activity against human U87 cells assessed as reduction in cell viability after 14 hrs by CCK8 assay; type: functional, cell-based, U-87MG ATCC
Homo sapiens [5] = species on record: Homo sapiens; assay: Inhibition of TrxR in human H7PX cells at IC20 incubated for 1 hr and measured up to 4 hrs by DNTB-reagent based colorimetric assay; type: cell-based
Homo sapiens [6] = species on record: Homo sapiens; assay: Inhibition of protein synthesis in human H7PX cells at IC20 for 14 hrs in presence of labeled methionine by fluorescence microscopic analysis; type: functional, cell-based
U-87 MG [7] = assay: Induction of ROS generation in human U87 cells at IC20 incubated for 1 hr by CM-H2DCFDA staining based microplate reader analysis; type: functional, cell-based; details: U-87MG ATCC
U-87MG ATCC [8] = assay: Inhibition of TrxR in human U87 cells at IC20 incubated for 1 hr and measured up to 4 hrs by DNTB-reagent based colorimetric assay; type: cell-based
Homo sapiens [9] = species on record: Homo sapiens; assay: Inhibition of TrxR in human […] cells assessed as reduction in intracellular thiol levels at IC20 after 1 hr by DNTB reagent based assay relative to control; type: cell-based; parameters: scale not given: the % may be the effect or the level left
[10] = Induction of apoptosis in human H6PX cells assessed as apoptotic cells at IC20 after 4 hrs by AnnexinV-FITC/PI staining based flow cytometry analysis (reference value: 9.7%); type: functional
U-87 MG [11] = assay: Induction of endoplasmic reticulum stress in human U87 cells assessed as GRP78 expression at IC20 after 2 hrs by ELISA relative to control; type: functional, U-87MG ATCC
[12] = Antiproliferative activity against human H6PX cells assessed as reduction in cell viability after 14 hrs by CCK8 assay; type: functional, cell-based
[13] = Induction of apoptosis in human H6PX cells assessed as reduction in bcl2 gene expression at IC20 after 4 hrs by RT-PCR analysis relative to untreated control; type: functional
Homo sapiens [14] = species on record: Homo sapiens; assay: Inhibition of TrxR in human H6PX cells at IC20 incubated for 1 hr and measured after 4 hrs by TRFS-GREEN dye based fluorescence microscopic analysis; type: cell-based
[15] = Induction of apoptosis in human H6PX cells assessed as increase in FASLG gene expression at IC20 after 4 hrs by RT-PCR analysis relative to untreated control; type: functional
U-87 MG [16] = assay: Inhibition of protein synthesis in human U87 cells at IC20 for 14 hrs in presence of labeled methionine by fluorescence microscopic analysis; type: functional, cell-based; details: U-87MG ATCC
Homo sapiens [17] = species on record: Homo sapiens; assay: Inhibition of TrxR in human H6PX cells assessed as reduction in intracellular thiol levels at IC20 after 1 hr by DNTB reagent based assay relative to control; type: cell-based; parameters: scale not given: the % may be the effect or the level left
U-87 MG [18] = assay: Induction of endoplasmic reticulum stress in human U87 cells assessed as EDEM expression at IC20 after 1 hr by ELISA relative to control; type: functional, U-87MG ATCC
U-87 MG [19] = assay: Induction of endoplasmic reticulum stress in human U87 cells assessed as DNAJC3 expression at IC20 after 1 hr by ELISA relative to control; type: functional, U-87MG ATCC
[20] = Anticlonogenic activity against human H7PX cells assessed as ratio of the number of colonies to the number of cells seeded at IC20 incubated for 14 days followed by replating and measured after 2 weeks by crystal violet staining based microscopic analysis (reference value: 100%); type: functional
U-87MG ATCC [21] = assay: Inhibition of TrxR in human U87 cells assessed as reduction in intracellular thiol levels at IC20 after 1 hr by DNTB reagent based assay relative to control; type: cell-based; parameters: scale not given: the % may be the effect or the level left
U-87 MG [22] = assay: Anticlonogenic activity against human U87 cells assessed as ratio of the number of colonies to the number of cells seeded at IC20 incubated for 14 days followed by replating and measured after 2 weeks by crystal violet staining based microscopic analysis (reference value: 100%); type: functional, U-87MG ATCC
U-87 MG [23] = assay: Induction of endoplasmic reticulum stress in human U87 cells assessed as EDEM expression at IC20 after 2 hrs by ELISA relative to control; type: functional, U-87MG ATCC
U-87 MG [24] = assay: Induction of endoplasmic reticulum stress in human U87 cells assessed as PDIA4 expression at IC20 after 2 hrs by ELISA relative to control; type: functional, U-87MG ATCC
U-87 MG [25] = assay: Induction of apoptosis in human U87 cells assessed as increase in FASLG gene expression at IC20 after 4 hrs by RT-PCR analysis relative to untreated control; type: functional, U-87MG ATCC
[26] = Antiproliferative activity against human H7PX cells assessed as reduction in cell viability after 14 hrs by CCK8 assay; type: functional, cell-based
U-87 MG [27] = assay: Induction of endoplasmic reticulum stress in human U87 cells assessed as GRP78 expression at IC20 after 1 hr by ELISA relative to control; type: functional, U-87MG ATCC
[28] = Induction of apoptosis in human H7PX cells assessed as increase in FASLG gene expression at IC20 after 4 hrs by RT-PCR analysis relative to untreated control; type: functional
[29] = Induction of apoptosis in human H7PX cells assessed as apoptotic cells at IC20 after 4 hrs by AnnexinV-FITC/PI staining based flow cytometry analysis (reference value: 9.6%); type: functional
Homo sapiens [30] = species on record: Homo sapiens; assay: Inhibition of protein synthesis in human H6PX cells at IC20 for 14 hrs in presence of labeled methionine by fluorescence microscopic analysis; type: functional, cell-based
[31] = Induction of apoptosis in human H7PX cells assessed as viable cells at IC20 after 4 hrs by AnnexinV-FITC/PI staining based flow cytometry analysis (reference value: 90.4%); type: functional
U-87 MG [32] = assay: Induction of endoplasmic reticulum stress in human U87 cells assessed as DDIT3 expression at IC20 after 1 hr by ELISA relative to control; type: functional, U-87MG ATCC
U-87 MG [33] = assay: Induction of endoplasmic reticulum stress in human U87 cells assessed as DNAJC3 expression at IC20 after 2 hrs by ELISA relative to control; type: functional, U-87MG ATCC
U-87 MG [34] = assay: Induction of endoplasmic reticulum stress in human U87 cells assessed as DDIT3 expression at IC20 after 2 hrs by ELISA relative to control; type: functional, U-87MG ATCC
Homo sapiens [35] = species on record: Homo sapiens; assay: Inhibition of TrxR in human H6PX cells at IC20 incubated for 1 hr and measured up to 4 hrs by DNTB-reagent based colorimetric assay; type: cell-based
[36] = Induction of apoptosis in human H6PX cells assessed as viable cells at IC20 after 4 hrs by AnnexinV-FITC/PI staining based flow cytometry analysis (reference value: 90.3%); type: functional
[37] = Drug accumulation in human U87 cells after 2 hrs by microbeta liquid scintillation counting analysis; type: ADME, cell-based; details: u-87mg atcc
U-87 MG [38] = assay: Induction of apoptosis in human U87 cells assessed as apoptotic cells at IC20 after 4 hrs by AnnexinV-FITC/PI staining based flow cytometry analysis (reference value: 6.9%); type: functional, U-87MG ATCC
[39] = Drug uptake in human U87 cells after 2 hrs by microbeta liquid scintillation counting analysis; type: ADME, cell-based; details: u-87mg atcc
U-87 MG [40] = assay: Induction of endoplasmic reticulum stress in human U87 cells assessed as PDIA4 expression at IC20 after 1 hr by ELISA relative to control; type: functional, U-87MG ATCC
U-87 MG [41] = assay: Induction of apoptosis in human U87 cells assessed as viable cells at IC20 after 4 hrs by AnnexinV-FITC/PI staining based flow cytometry analysis (reference value: 93.1%); type: functional, U-87MG ATCC
U-87MG ATCC [42] = assay: Inhibition of TrxR in human U87 cells at IC20 incubated for 1 hr and measured after 4 hrs by TRFS-GREEN dye based fluorescence microscopic analysis; type: cell-based
Homo sapiens [43] = species on record: Homo sapiens; assay: Inhibition of TrxR in human H7PX cells at IC20 incubated for 1 hr and measured after 4 hrs by TRFS-GREEN dye based fluorescence microscopic analysis; type: cell-based

IC50 (U-87 MG [4]): 65.2 µM
Drug uptake [37]: Not Active
Drug uptake [39]: Active
SMILES: CC(=O)OC[C@H]1O[C@@H](S[C@@H]2CC(=O)[C@@H]3OC[C@H]2O3)[C@H](OC(C)=O)[C@@H](OC(C)=O)[C@@H]1OC(C)=O
fold change (FC) [1]: -0.69
Activity [2]: 46%
fold change (FC) (U-87 MG [3]): -0.35
IC20 (U-87 MG [4]): 51.4 µM
inhibition (Homo sapiens [5]): Active
inhibition (Homo sapiens [6]): Active
Activity (U-87 MG [7]): Active
inhibition (U-87MG ATCC [8]): Active
Activity (Homo sapiens [9]): 19.7%
Activity [10]: 80.4%
fold change (FC) (U-87 MG [11]): 1.38
IC20 [12]: 113 µM
IC50 [12]: 133 µM
fold change (FC) [13]: -0.4
inhibition (Homo sapiens [14]): Active
fold change (FC) [15]: 4.46
inhibition (U-87 MG [16]): Active
Activity (Homo sapiens [17]): 22.3%
fold change (FC) (U-87 MG [18]): 2.39
fold change (FC) (U-87 MG [19]): 1.07
Activity [20]: 63%
Activity (U-87MG ATCC [21]): 11.8%
Activity (U-87 MG [22]): 40%
fold change (FC) (U-87 MG [23]): 1.1
fold change (FC) (U-87 MG [24]): 1.24
fold change (FC) (U-87 MG [25]): 3.25
IC20 [26]: 134 µM
IC50 [26]: 158 µM
fold change (FC) (U-87 MG [27]): 1.81
fold change (FC) [28]: 6.12
Activity [29]: 43.3%
inhibition (Homo sapiens [30]): Active
Activity [31]: 56.7%
fold change (FC) (U-87 MG [32]): 7.01
fold change (FC) (U-87 MG [33]): 2.43
fold change (FC) (U-87 MG [34]): 0.11
inhibition (Homo sapiens [35]): Active
Activity [36]: 19.6%
Activity (U-87 MG [38]): 62.2%
fold change (FC) (U-87 MG [40]): 1.9
Activity (U-87 MG [41]): 37.8%
inhibition (U-87MG ATCC [42]): Active
inhibition (Homo sapiens [43]): Active

IC50 (U-87 MG [4]): 922 µM
SMILES: O=C(O)c1ccccc1S[C@@H]1CC(=O)[C@@H]2OC[C@H]1O2
Activity [2]: 75%
IC20 (U-87 MG [4]): 784 µM
IC20 [12]: 922 µM
IC50 [12]: 955 µM
Activity [20]: 98%
Activity (U-87 MG [22]): 86%
IC20 [26]: 654 µM
IC50 [26]: 736 µM
